Assay results published in patent publication EP4800012A1, “COMPOUND ACTING AS PARP7 INHIBITOR” (Dovetree Medicines Unus, Inc., priority 2023, dated 2025).

Legend:
[1] = molecular target: T1, PARP7 (Homo sapiens, UniProt Q7Z3E1); assay: Inhibition of the compound on PARP7 protein activity (ADP-ribosylation, chemiluminescence); format: biochemical
T1 construct: purchased BPS 80527
T1 sequence (Q7Z3E1 1-657): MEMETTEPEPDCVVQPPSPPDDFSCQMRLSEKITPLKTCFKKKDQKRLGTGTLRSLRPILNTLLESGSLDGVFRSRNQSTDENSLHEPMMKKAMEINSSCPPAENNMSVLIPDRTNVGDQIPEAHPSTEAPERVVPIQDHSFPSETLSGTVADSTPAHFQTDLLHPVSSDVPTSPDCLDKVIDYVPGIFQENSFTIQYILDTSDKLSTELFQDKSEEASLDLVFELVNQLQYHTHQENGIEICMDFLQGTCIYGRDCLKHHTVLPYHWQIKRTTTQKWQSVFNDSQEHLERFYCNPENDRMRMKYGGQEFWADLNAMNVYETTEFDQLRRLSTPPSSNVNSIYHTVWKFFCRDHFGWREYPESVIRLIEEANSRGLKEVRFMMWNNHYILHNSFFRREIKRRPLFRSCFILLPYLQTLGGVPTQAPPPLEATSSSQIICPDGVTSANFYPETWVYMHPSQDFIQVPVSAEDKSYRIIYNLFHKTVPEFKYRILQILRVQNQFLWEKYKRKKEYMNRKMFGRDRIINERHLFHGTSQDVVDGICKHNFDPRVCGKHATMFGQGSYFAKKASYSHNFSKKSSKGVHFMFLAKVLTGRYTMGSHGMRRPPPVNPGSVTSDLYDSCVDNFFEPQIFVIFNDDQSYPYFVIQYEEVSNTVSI

[2] = molecular target: T1, PARP7; assay: PARP7 TR-FRET binding inhibition (displacement of probe RBN011147)
Procedure: The ability of the compound to substitute the probe RBN011147 (Wigle et al., 2020, Cell Chemical Biology 27, 877-887) was tested by a TR-FRET method, and IC50 was calculated to evaluate the binding ability of the compound to PARP7. […]

[3] = test system: NCI-H1373 cells; assay: Inhibition on NCI-H1373 cell proliferation (Cell-Titer-Glo); format: cell-based; details: Homo sapiens, 144 h; NCI-H1373 cells, incubation for 6 days, Cell-Titer-Glo; read-out: NCI-H1373 cell proliferation inhibition IC50
Procedure: The inhibitory effect of the compound on PARP7 was evaluated by testing the inhibitory effect of the compound on NCI-H1373 cell proliferation.
NCI-H1373 cells (ATCC, CRL-5866) were cultured in a complete medium, namely, a RPMI-1640 medium (Gibco, 22400089) containing 10% fetal bovine serum (Corning, 35-081-CV).
Negative control wells and positive control wells were added with 50 nL DMSO (Sigma, D2650), respectively.
In "Day 0" detection plate, NCI-H1373 cells were seeded at a density of 600 cells/well (50 µL) in a complete medium into the Day 0 test wells of a 384-well detection plate (Grenier, 781091). Then, 25 µL of Cell-Titer-Glo reagent (Promega, G7573) was added to each well, followed by centrifugation at 1000 rpm at room temperature for 1 minute and incubation at room temperature under shaded conditions for 10 min. Chemiluminescence signals were collected using an Envision (Perkin Elmer, EnVision 2105) to obtain the average value of the Day 0 test values.
In "compound detection plate", NCI-H1373 cells were seeded at a density of 600 cells/well (50 µL) in a complete medium into the negative control wells and the compound detection wells of a 384-well detection plate (Grenier, 781091), and 50 µL of cell culture medium was added to the positive control wells, followed by centrifugation at 1000 rpm at room temperature for 1 minute and placing in a cell incubator at 37°C, 5% CO2 for incubation for 6 days. […] Chemiluminescence signals were collected using an Envision (Perkin Elmer, EnVision 2105). The test values for each compound well, negative control well, and positive control well were obtained.
The proliferation inhibition ratio formula is as follows: [formula]
The average value of the negative control = the average value of the Day 6 test values of each negative control well minus the average value of the Day 0 test values
The average value of the positive control = the average value of the Day 6 test values of each positive control well
The average value of the compound test = (the Day 6 test value of compound test well 1 + the Day 6 test value of compound test well 2)/2 - the average value of the Day 0 test values

[4] = Histone H1 coated plate, Biotin-Labeled NAD+, 2 h at room temperature, chemiluminescence; read-out: PARP7 activity inhibition IC50
[5] = TR-FRET, Biotin-labeled probe RBN011147; read-out: PARP7 binding inhibition IC50

Row | Compound | IC50 [1, 4] [nM] | IC50 [2, 5] [nM] | IC50 [3] [nM] | IC50 ([1]; read-out: PARP7 activity inhibition IC50; Histone H1 coated plate, Biotin-Labeled NAD+, 2 h at room temperature, chemiluminescence) [nM] | IC50 ([2]; read-out: PARP7 binding inhibition IC50; TR-FRET, Biotin-labeled probe RBN011147) [nM]
1 | CC(CCCNC(=O)c1ncc(-c2cscn2)cc1F)Nc1cn[nH]c(=O)c1C(F)(F)F (stereo not drawn) [Example 182] | 3 to 10 | 30 to 100 | > 3000 | – | –
2 | CC(CCCNC(=O)c1ccc(-n2cncn2)c(F)c1)Nc1cn[nH]c(=O)c1C(F)(F)F (stereo not drawn) [Example 48] | 10 to 30 | 30 to 100 | > 3000 | – | –
3 | O=C(NCCC[C@H]1CCN1c1cn[nH]c(=O)c1C(F)(F)F)c1cnc(-c2ncc(C(F)(F)F)cn2)cn1 [Example 164] | – | – | > 3000 | > 100 | > 100
4 | CC(CCCNC(=O)c1ccc(-c2ncc(N3CCOCC3)cn2)cc1)Nc1cn[nH]c(=O)c1C(F)(F)F (stereo not drawn) [Example 14] | < 3 | < 10 | > 3000 | – | –
5 | CC(CCCNC(=O)c1ncc(-n2cc(C(F)(F)F)cn2)cc1F)Nc1cn[nH]c(=O)c1C(F)(F)F (stereo not drawn) [Example 183] | < 3 | < 10 | 300 to 1000 | – | –
6 | CC(CCCNC(=O)c1ccc(-c2nc(C(F)(F)F)cs2)cc1)Nc1cn[nH]c(=O)c1C(F)(F)F (stereo not drawn) [Example 81] | 30 to 100 | 30 to 100 | > 3000 | – | –
7 | O=C(NCCCC(Nc1cn[nH]c(=O)c1C(F)(F)F)C1CC1)c1cnc(-c2ncc(C(F)(F)F)s2)cn1 (stereo not drawn) [Example 54] | 3 to 10 | 10 to 30 | > 3000 | – | –
8 | O=C(NCCCC(Nc1cn[nH]c(=O)c1C(F)(F)F)C1CC1)c1ccc(-c2ncc(C(F)(F)F)s2)cc1 (stereo not drawn) [Example 55] | < 3 | < 10 | 1000 to 3000 | – | –
9 | CC(CCCNC(=O)c1ncc(-c2ncc(C(F)(F)F)s2)cc1F)Nc1cn[nH]c(=O)c1C(F)(F)F (stereo not drawn) [Example 75] | < 3 | < 10 | < 300 | – | –
10 | CC(CCCNC(=O)c1ccc2c(=O)n(C)cnc2c1)Nc1cn[nH]c(=O)c1C(F)(F)F (stereo not drawn) [Example 59] | 30 to 100 | 30 to 100 | > 3000 | – | –
11 | Cc1nc(-c2ccc(C(=O)NCCCC(C)Nc3cn[nH]c(=O)c3C(F)(F)F)cc2)sc1C (stereo not drawn) [Example 189] | < 3 | 30 to 100 | 1000 to 3000 | – | –
12 | CC(CCCNC(=O)c1ccc(-c2ccc(-c3cnco3)cn2)cc1)Nc1cn[nH]c(=O)c1C(F)(F)F (stereo not drawn) [Example 188] | < 3 | 10 to 30 | > 3000 | – | –
13 | CC(CCCNC(=O)c1ccc(-c2ccc(=O)n(C)n2)cc1)Nc1cn[nH]c(=O)c1C(F)(F)F (stereo not drawn) [Example 64] | 10 to 30 | > 100 | > 3000 | – | –
14 | CC(CCCN(C)C(=O)c1cnc(-c2ncc(C(F)(F)F)cn2)cn1)Nc1cn[nH]c(=O)c1C(F)(F)F (stereo not drawn) [Example 50] | < 3 | 10 to 30 | > 3000 | – | –
15 | CC(CCCNC(=O)c1cnc(-c2cc(C(F)(F)F)sn2)c(F)c1)Nc1cn[nH]c(=O)c1C(F)(F)F (stereo not drawn) [Example 205] | < 3 | < 10 | 300 to 1000 | – | –
16 | CC(CCCNC(=O)c1cnc(-c2ncc(C(F)F)s2)cn1)Nc1cn[nH]c(=O)c1C(F)(F)F (stereo not drawn) [Example 25] | < 3 | < 10 | 1000 to 3000 | – | –
17 | COc1cnc(-c2ccc(C(=O)NCCCC(C)Nc3cn[nH]c(=O)c3C(F)(F)F)c(F)c2)s1 (stereo not drawn) [Example 21] | < 3 | < 10 | 1000 to 3000 | – | –
18 | COc1nc(-c2ccc(C(=O)NCCCC(C)Nc3cn[nH]c(=O)c3C(F)(F)F)cc2)cs1 (stereo not drawn) [Example 65] | 30 to 100 | 30 to 100 | > 3000 | – | –
19 | CC(CCCNC(=O)c1ncc(-c2ncc(C(F)(F)F)cn2)s1)Nc1cn[nH]c(=O)c1C(F)(F)F (stereo not drawn) [Example 151] | 3 to 10 | 30 to 100 | > 3000 | – | –
